In brackets after ≈: the same amount, converted by molar mass.
Assays:
Format in all cases: functional
Klebsiella pneumoniae [1] = test: Antimicrobial activity against extended-spectrum beta lactamase producing Klebsiella pneumoniae expressing beta-lactamase CTX-M-3, CTX-M-15 and CTX-M-55 gene assessed as susceptible isolates by Etest
Escherichia coli [2] = test: Antimicrobial activity against extended-spectrum beta lactamase producing Escherichia coli expressing beta-lactamase CTX-M-14 and CTX-M-27 gene assessed as susceptible isolates by Etest; conditions: pooled result: one value given for 2 cell lines, strains, targets or settings
Escherichia coli [3] = test: Antimicrobial activity against extended-spectrum beta lactamase producing Escherichia coli expressing beta-lactamase CTX-M-3, CTX-M-15 and CTX-M-55 and other bla gene assessed as susceptible isolates by Etest
Escherichia coli [4] = test: Antimicrobial activity against extended-spectrum beta lactamase producing Escherichia coli expressing beta-lactamase CTX-M-14 and CTX-M-27 gene and other bla gene assessed as susceptible isolates by Etest; conditions: pooled result: one value given for 2 cell lines, strains, targets or settings
Escherichia coli [5] = test: Antimicrobial activity against extended-spectrum beta lactamase producing Escherichia coli expressing beta-lactamase CTX-M-3, CTX-M-15 and CTX-M-55 gene assessed as susceptible isolates by Etest
Klebsiella pneumoniae [6] = test: Antimicrobial activity against extended-spectrum beta lactamase producing Klebsiella pneumoniae assessed as resistant isolates by Etest
Escherichia coli [7] = test: Antimicrobial activity against extended-spectrum beta lactamase producing Escherichia coli assessed as resistant isolates by Etest
Klebsiella pneumoniae [8] = test: Antimicrobial activity against extended-spectrum beta lactamase producing Klebsiella pneumoniae expressing beta-lactamase CTX-M-3, CTX-M-15 and CTX-M-55 and other bla gene assessed as susceptible isolates by Etest
Escherichia coli [9] = test: Antimicrobial activity against extended-spectrum beta lactamase producing Escherichia coli expressing beta-lactamase CTX-M-14 and CTX-M-27 and other bla gene by Etest
Klebsiella pneumoniae [10] = test: Antimicrobial activity against extended-spectrum beta lactamase producing Klebsiella pneumoniae expressing beta-lactamase CTX-M-14 and CTX-M-27 gene and other bla gene by Etest
Klebsiella pneumoniae [11] = test: Antimicrobial activity against extended-spectrum beta lactamase producing Klebsiella pneumoniae expressing beta-lactamase CTX-M-3, CTX-M-15 and CTX-M-55 and other bla gene by Etest
Klebsiella pneumoniae [12] = test: Antimicrobial activity against extended-spectrum beta lactamase producing Klebsiella pneumoniae expressing beta-lactamase CTX-M-3, CTX-M-15 and CTX-M-55 gene by Etest
Escherichia coli [13] = test: Antimicrobial activity against extended-spectrum beta lactamase producing Escherichia coli by Etest
Escherichia coli [14] = test: Antimicrobial activity against extended-spectrum beta lactamase producing Escherichia coli expressing beta-lactamase CTX-M-3, CTX-M-15 and CTX-M-55 gene by Etest
Klebsiella pneumoniae [15] = test: Antimicrobial activity against extended-spectrum beta lactamase producing Klebsiella pneumoniae expressing beta-lactamase CTX-M-14 and CTX-M-27 gene by Etest
Escherichia coli [16] = test: Antimicrobial activity against extended-spectrum beta lactamase producing Escherichia coli expressing beta-lactamase CTX-M-3, CTX-M-15 and CTX-M-55 and other bla gene by Etest
Klebsiella pneumoniae [17] = test: Antimicrobial activity against extended-spectrum beta lactamase producing Klebsiella pneumoniae by Etest
Escherichia coli [18] = test: Antimicrobial activity against extended-spectrum beta lactamase producing Escherichia coli expressing beta-lactamase CTX-M-14 and CTX-M-27 gene by Etest

Compound | Activity (Klebsiella pneumoniae [1]) [%] | Activity (Escherichia coli [2]) [%] | Activity (Escherichia coli [3]) [%] | Activity (Escherichia coli [4]) [%] | Activity (Escherichia coli [5]) [%] | Activity (Klebsiella pneumoniae [6]) [%] | Activity (Escherichia coli [7]) [%] | Activity (Klebsiella pneumoniae [8]) [%] | MIC90 (Escherichia coli [9]) [µg/mL] | MIC90 (Klebsiella pneumoniae [10]) [µg/mL] | MIC90 (Klebsiella pneumoniae [11]) [µg/mL] | MIC90 (Klebsiella pneumoniae [12]) [µg/mL] | MIC50 (Escherichia coli [13]) [µg/mL] | MIC90 (Escherichia coli [13]) [µg/mL] | MIC90 (Escherichia coli [14]) [µg/mL] | MIC90 (Klebsiella pneumoniae [15]) [µg/mL] | MIC90 (Escherichia coli [16]) [µg/mL] | MIC50 (Klebsiella pneumoniae [17]) [µg/mL] | MIC90 (Klebsiella pneumoniae [17]) [µg/mL] | MIC90 (Escherichia coli [18]) [µg/mL]
CN(C)[C@@H]1C(O)=C(C(N)=O)C(=O)[C@@]2(O)C(O)=C3C(=O)c4c(O)cccc4[C@@](C)(O)[C@H]3C[C@@H]12 [TETRACYCLINE] | 4.8 | 16.7 | 4.9 | 5.9 | 4.8 | 85.7 | 87.5 | 4.9 |  |  |  |  |  |  |  |  |  |  |  | 
C[C@@H](O)[C@H]1C(=O)N2C(C(=O)O)=C(S[C@@H]3CN[C@H](C(=O)N(C)C)C3)[C@H](C)[C@H]12 [MEROPENEM] |  |  |  |  |  |  |  |  | 0.064 (≈ 0.167 µM) | 0.064 (≈ 0.167 µM) | 0.125 (≈ 0.326 µM) | 0.19 (≈ 0.495 µM) | 0.047 (≈ 0.123 µM) | 0.125 (≈ 0.326 µM) | 0.19 (≈ 0.495 µM) | 0.094 (≈ 0.245 µM) | 0.125 (≈ 0.326 µM) | 0.047 (≈ 0.123 µM) | 0.125 (≈ 0.326 µM) | 0.094 (≈ 0.245 µM)
CC(C)(O/N=C(\C(=O)N[C@@H]1C(=O)N2C(C(=O)[O-])=C(C[n+]3ccccc3)CS[C@H]12)c1csc(N)n1)C(=O)O [CEFTAZIDIME] |  |  |  |  |  |  |  |  | > 256 | > 256 | > 256 | 256 (≈ 468 µM) | 32 (≈ 58.5 µM) | 256 (≈ 468 µM) | 256 (≈ 468 µM) | 16 (≈ 29.3 µM) | > 256 | 128 (≈ 234 µM) | > 256 | 16 (≈ 29.3 µM)
C[C@@H](O)[C@H]1C(=O)N2C(C(=O)O)=C(S[C@@H]3CN[C@H](C(=O)Nc4cccc(C(=O)O)c4)C3)[C@H](C)[C@H]12 [ERTAPENEM] |  |  |  |  |  |  |  |  | 0.25 (≈ 0.526 µM) | 0.25 (≈ 0.526 µM) | 0.5 (≈ 1.05 µM) | 0.38 (≈ 0.799 µM) | 0.094 (≈ 0.198 µM) | 0.38 (≈ 0.799 µM) | 0.38 (≈ 0.799 µM) | 0.19 (≈ 0.4 µM) | 0.5 (≈ 1.05 µM) | 0.094 (≈ 0.198 µM) | 0.38 (≈ 0.799 µM) | 0.19 (≈ 0.4 µM)
CO/N=C(\C(=O)N[C@@H]1C(=O)N2C(C(=O)O)=C(COC(C)=O)CS[C@H]12)c1csc(N)n1 [CEFOTAXIME] |  |  |  |  |  |  |  |  | 256 (≈ 562 µM) | 256 (≈ 562 µM) | > 256 | > 256 | 256 (≈ 562 µM) | > 256 | > 256 | 128 (≈ 281 µM) | > 256 | 128 (≈ 281 µM) | > 256 | 128 (≈ 281 µM)
GENTAMICIN | 24.1 | 33.3 | 19 | 30.3 | 24.1 | 76.4 | 66.3 | 19 |  |  |  |  |  |  |  |  |  |  |  | 
CO/N=C(\C(=O)N[C@@H]1C(=O)N2C(C(=O)O)=C(CSc3nc(=O)c(O)nn3C)CS[C@H]12)c1csc(N)n1 [CEFTRIAXONE] |  |  |  |  |  |  |  |  | > 256 | > 256 | > 256 | > 256 | > 256 | > 256 | > 256 | > 256 | > 256 | > 256 | > 256 | > 256
C[C@@H](O)[C@H]1C(=O)N2C(C(=O)O)=C(SCCNC=N)C[C@H]12 [IMIPENEM ANHYDROUS] |  |  |  |  |  |  |  |  | 0.38 (≈ 1.27 µM) | 0.38 (≈ 1.27 µM) | 0.38 (≈ 1.27 µM) | 0.5 (≈ 1.67 µM) |  |  | 0.5 (≈ 1.67 µM) | 0.5 (≈ 1.67 µM) | 0.38 (≈ 1.27 µM) | 0.25 (≈ 0.835 µM) | 0.38 (≈ 1.27 µM) | 0.5 (≈ 1.67 µM)
NCC[C@H](O)C(=O)N[C@@H]1C[C@H](N)[C@@H](O[C@H]2O[C@H](CN)[C@@H](O)[C@H](O)[C@H]2O)[C@H](O)[C@H]1O[C@H]1O[C@H](CO)[C@@H](O)[C@H](N)[C@H]1O [AMIKACIN] | 81 | 83.3 | 81 | 78.9 | 81 | 28.6 | 12.5 | 81 |  |  |  |  |  |  |  |  |  |  |  | 
O=C(O)c1cn(C2CC2)c2cc(N3CCNCC3)c(F)cc2c1=O [CIPROFLOXACIN] | 20.4 | 25.7 | 11.1 | 8.3 | 20.4 | 76.6 | 78.1 | 11.1 |  |  |  |  |  |  |  |  |  |  |  | 

— ChEMBL document CHEMBL1275460, “Molecular characterization and epidemiology of extended-spectrum-beta-lactamase-producing Escherichia coli and Klebsiella pneumoniae isolates causing health care-associated infection in Thailand, where the CTX-M family is endemic” (2008)
